# Experimental data taken from patent publication US20090176726A1, “METHODS FOR TREATING MITF-RELATED DISORDERS” (priority 2005, published 2009).
# Read-outs that look alike come from different tables or passages of the source.
# Tests used:
# MITF [1] = type: cell-based, human
# HIF-1α [2] = type: cell-based, human
# MITF mRNA = type: cell-based, human
# MITF [3] = assay: MITF protein level in human melanoma cells (UACC62); type: cell-based
# HIF-1α [4] = assay: HIF-1α protein level in human melanoma cells (UACC62); type: cell-based
# FoxD1 = type: cell-based, human
# MITF [5] = assay: MITF expression in UACC62 cells transfected with constitutive MITF vector or empty vector; type: cell-based, human; settings: increasing levels of DMOG
# Description: (§1) Human melanoma cells (UACC62) were transfected with a vector that constitutively expresses MITF off a promoter different from its natural promoter. As a control, other cells were transfected with empty vector. Both cell types were exposed to increasing levels of DMOG, which mimics certain aspects of hypoxia in upregulating HIF.
# [6] = tested on: Human melanoma cells (UACC62); assay: Cell death of transfected UACC62 cells exposed to DMOG; type: cell-based
# Description: as §1
# [7] = UACC62 cells, 200 μM DFO, 0, 2, 6, 8 and 24 hrs, FIG. 4B
# [8] = UACC62 cells transformed with empty vector
smiles,measurement,setting,value
[Cl-].[Cl-].[Co+2] [CoCl2],level of MITF protein,MITF [1],decreased as CoCl2 was increased
same,level of HIF-1α,HIF-1α [2],increased as CoCl2 was increased
same,MITF mRNA levels,MITF mRNA,decreased
same,MITF protein levels,MITF [3],decreased
same,downregulation of MITF by CoCl2,MITF [3],substantially blocked
same,level of MITF protein,MITF [3],decreased
same,HIF-1α levels,HIF-1α [4],increased
same,level of HIF-1α protein,HIF-1α [4],increased
same,FoxD1 expression (microarray),FoxD1,upregulated
"CC(=O)N(O)CCCCCNC(=O)CCC(=O)N(O)CCCCCNC(=O)CCC(=O)N(O)CCCCCN [DFO, desferrioxamine]",MITF protein levels,MITF [3]; [7],decreased steadily
same,HIF-1α protein levels,HIF-1α [4]; [7],increased steadily
"COC(=O)CNC(=O)C(=O)OC [DMOG, dimethyl-oxalylglycine]",level of MITF protein,"MITF [3]; UACC62 cells, 1 mM DMOG, 0, 2, 6, 8 and 24 hrs, FIG. 4A",decreased
same,HIF-1α levels at 24 hours,"HIF-1α [4]; UACC62 cells, 1 mM DMOG, 24 hours compared with 8 hours, FIG. 4A",somewhat lower than at 8 hours
same,"HIF-1α protein level, 2 to 8 hours","HIF-1α [4]; UACC62 cells, 1 mM DMOG, FIG. 4A",increased steadily
same,MITF expression,MITF [5]; [8],significant decrease
same,MITF expression,MITF [5]; UACC62 cells transformed with vector that constitutively expresses MITF,did not exhibit a detectable decrease
same,cell death,"[6]; UACC62 cells that constitutively express MITF, at DMOG levels lethal to empty vector cells",protected from cell death
same,cell death,[6]; [8],lethal
